Like-named read-outs stand apart in the source and are kept apart here.
What was measured:
HBV GT F = assay: Transient-transfection antiviral study in HepG2 cells, GT F; assay type: cell-based; details: Hepatitis B virus, HepG2, 72 h, read-out: EC50 (mean), HBV GT F
HBV GT G = assay: Transient-transfection antiviral study in HepG2 cells, GT G; assay type: cell-based; details: Hepatitis B virus, HepG2, 72 h, read-out: EC50 (mean), HBV GT G
[1] = tested on: HBV core protein variant T109S; assay: Transient-transfection antiviral study in HepG2 cells, core variant T109S; assay type: cell-based, hepatitis B virus
[2] = 28-day twice-daily oral gavage pharmacokinetics in CD1 mice; assay type: in vivo; details: for Cmax / half-life / AUC(0-t) / Tmax: CD1, mouse, plasma, po; for AUC(0-t): after second daily dose, read-out: AUC0–12; for Tmax: relative to second daily dose
Protocol: Fed male and female CD1 mice (36/sex/group) were dosed twice a day (BID) by oral gavage with 50, 150, and 500 mg/kg of body weight/dose of NVR 3-778 for 28 days. At different time points after dosing, plasma was analyzed for NVR 3-778 concentration by liquid chromatography-tandem mass spectrometry (LC-MS/MS).
In vivo pharmacokinetics studies were performed at Covance Laboratories (Madison, Wisconsin), accredited by the Association for Assessment and Accreditation of Laboratory Animal Care (AAALAC). All procedures in the protocols were in compliance with applicable animal welfare acts and were approved by the local Institutional Animal Care and Use Committee (IACUC). For the 28-day study in mice, male and female mice were 6 to 7 weeks old at the initiation of dosing. Environmental conditions, diet, and water were typical for pharmacokinetic and tolerability studies. NVR 3-778 was dosed in a vehicle of 0.5% (wt/vol) hydroxypropyl methylcellulose (Methocel E50 premium)--1% (wt/vol) polysorbate 80 (Tween 80) in reverse osmosis water. Blood samples were collected at 0.25, 0.5, 1, 3, 6, and 12 h after dosing on day 1 and on day 28 of the study into potassium (K2) EDTA. Plasma was harvested and stored at −80°C.

[3] = Oral bioavailability and pharmacokinetics in beagle dogs; assay type: in vivo; details: for AUC(0-inf): read-out: AUC0–inf (mean)
Protocol: After a 7-day washout period, the same two dogs were administered NVR 3-778 by a single oral gavage of the same formulation at 1.5 mg/kg. Blood samples were collected at 0 (predose), 2 min (for the i.v. group only), 5 min, 15 min, and 0.5, 1, 3, 6, 9, and 24 h postdose. The concentration of NVR 3-778 in plasma samples was determined using LC-MS/MS methods.

plasma proteins = assay: Plasma protein binding by equilibrium dialysis, rat; assay type: in vitro ADME; details: 2 µM
Source text: The binding of NVR 3-778 to the plasma proteins of mouse, rat, dog, monkey, and human was investigated by equilibrium dialysis.

[4] = molecular target: T1, recombinant HBV core protein (Hepatitis B virus genotype D subtype ayw, UniProt P03146); assay: Capsid assembly of recombinant core protein, electron microscopy; assay type: biochemical; details: 1.2:1 compound-to-core monomer ratio, 0.15 M NaCl, room temperature overnight
T1 construct: Electron microscopy with HBV capsid formed from recombinant HBV core protein was performed as described previously ([5])
Protocol: FIG 1 NVR 3-778 targets HBV core protein and inhibits viral replication. (A) Chemical structure of NVR 3-778. (B) Purified recombinant HBV core protein in the absence or presence of NVR 3-778. NVR 3-778 was incubated with recombinant core protein (1.2:1 compound-to-core monomer ratio) in buffer containing 0.15 M NaCl at room temperature overnight prior to staining and imaging by electron microscopy. (C, D) The effect of NVR 3-778 on intracellular rcDNA, extracellular HBV DNA, or cell viability (C) or on intracellular encapsidated pgRNA- or extracellular HBV RNA-containing particles (D) was determined upon treating HepG2.2.15 cells with increasing concentrations of NVR 3-778. (E, F) The effect of TFV on intracellular rcDNA, extracellular HBV DNA, or cell viability (E) or on intracellular encapsidated pgRNA- or extracellular HBV RNA-containing particles (F) was determined upon treating HepG2.2.15 cells with increasing concentrations of TFV. Secreted HBV DNA and secreted HBV RNA levels were determined from the supernatant of HepG2.2.15 cells. Intracellular encapsidated rcDNA and pgRNA levels were determined upon NP-40 lysis of cells and by using S7 nuclease to remove nonencapsidated nucleic acids. Cell viability was determined by measuring ATP levels using the CellTiter-Glo assay. […]

HBV [5] = tested on: HBV; design: method as in PMID 30181376; details: metabolically active primary human hepatocytes; cited from earlier work
HBV [6] = tested on: HBV; design: method as in doi:10.1016/S0168-8278(16)00175-6; details: HBV-infected patients; cited from earlier work
[7] = female, 50 mg/kg, day 1, 50 mg/kg/dose BID oral gavage, F
[8] = female, 50 mg/kg, day 28, 50 mg/kg/dose BID oral gavage, F
[9] = female, 150 mg/kg, day 1, 150 mg/kg/dose BID oral gavage, F
[10] = female, 150 mg/kg, day 28, 150 mg/kg/dose BID oral gavage, F
[11] = female, 500 mg/kg, day 1, 500 mg/kg/dose BID oral gavage, F
[12] = female, 500 mg/kg, day 28, 500 mg/kg/dose BID oral gavage, F
[13] = male, 50 mg/kg, day 1, 50 mg/kg/dose BID oral gavage, M
[14] = male, 50 mg/kg, day 28, 50 mg/kg/dose BID oral gavage, M
[15] = male, 150 mg/kg, day 1, 150 mg/kg/dose BID oral gavage, M
[16] = male, 150 mg/kg, day 28, 150 mg/kg/dose BID oral gavage, M
[17] = male, 500 mg/kg, day 1, 500 mg/kg/dose BID oral gavage, M
[18] = male, 500 mg/kg, day 28, 500 mg/kg/dose BID oral gavage, M
[19] = dog, plasma, iv, single i.v. 0.5 mg/kg, two male beagle dogs
[20] = dog, plasma, single oral gavage 1.5 mg/kg, two male beagle dogs

O=C(Nc1cc(F)c(F)c(F)c1)c1ccc(F)c(S(=O)(=O)N2CCC(O)CC2)c1 [NVR 3-778]
EC50 (HBV GT F): 560 nM
EC50 (HBV GT G): 250 nM
EC50 ([1]; Hepatitis B virus, HepG2, read-out: EC50, core variant T109S): 770 ± 270 nM
EC50 FC, T109S ([1]; ratio of mean EC50 for core variant over wild-type HBV): 3.3 fold
Gender differences in NVR 3-778 exposure ([2]; CD1 mice, Cmax and AUC): less than 2 fold
Cmax ([2]; both sexes, 500 mg/kg, 28-day study, dosed orally at 500 mg/kg BID, 100 µM = 43.2 µg/ml, read-out: Mean Cmax (serum/plasma level reached in mice)): > 100 µM
half-life [2, 7]: 2.2 h
AUC(0-t) [2, 7]: 60.1 µg·h/mL
Cmax ([2]; female, 50 mg/kg, day 1, 50 mg/kg/dose BID oral gavage, F, read-out: Cmax): 11700 ng/mL
Tmax [2, 7]: 0.5 h
AUC(0-t) [2, 8]: 78.8 µg·h/mL
Cmax ([2]; female, 50 mg/kg, day 28, 50 mg/kg/dose BID oral gavage, F, read-out: Cmax): 11500 ng/mL
Tmax [2, 8]: 3 h
half-life [2, 9]: 4.35 h
AUC(0-t) [2, 9]: 131 µg·h/mL
Cmax ([2]; female, 150 mg/kg, day 1, 150 mg/kg/dose BID oral gavage, F, read-out: Cmax): 22000 ng/mL
Tmax [2, 9]: 0.5 h
half-life [2, 10]: 2.48 h
AUC(0-t) [2, 10]: 171 µg·h/mL
Cmax ([2]; female, 150 mg/kg, day 28, 150 mg/kg/dose BID oral gavage, F, read-out: Cmax): 26600 ng/mL
Tmax [2, 10]: 1 h
AUC(0-t) [2, 11]: 315 µg·h/mL
Cmax ([2]; female, 500 mg/kg, day 1, 500 mg/kg/dose BID oral gavage, F, read-out: Cmax): 41400 ng/mL
Tmax [2, 11]: 0.5 h
AUC(0-t) [2, 12]: 354 µg·h/mL
Cmax ([2]; female, 500 mg/kg, day 28, 500 mg/kg/dose BID oral gavage, F, read-out: Cmax): 40800 ng/mL
Tmax [2, 12]: 3 h
AUC(0-t) [2, 13]: 70.4 µg·h/mL
Cmax ([2]; male, 50 mg/kg, day 1, 50 mg/kg/dose BID oral gavage, M, read-out: Cmax): 12700 ng/mL
Tmax [2, 13]: 1 h
AUC(0-t) [2, 14]: 87.3 µg·h/mL
Cmax ([2]; male, 50 mg/kg, day 28, 50 mg/kg/dose BID oral gavage, M, read-out: Cmax): 11900 ng/mL
Tmax [2, 14]: 3 h
half-life [2, 15]: 5 h
AUC(0-t) [2, 15]: 166 µg·h/mL
Cmax ([2]; male, 150 mg/kg, day 1, 150 mg/kg/dose BID oral gavage, M, read-out: Cmax): 25300 ng/mL
Tmax [2, 15]: 1 h
AUC(0-t) [2, 16]: 157 µg·h/mL
Cmax ([2]; male, 150 mg/kg, day 28, 150 mg/kg/dose BID oral gavage, M, read-out: Cmax): 24200 ng/mL
Tmax [2, 16]: 1 h
AUC(0-t) [2, 17]: 406 µg·h/mL
Cmax ([2]; male, 500 mg/kg, day 1, 500 mg/kg/dose BID oral gavage, M, read-out: Cmax): 43000 ng/mL
Tmax [2, 17]: 1 h
half-life [2, 18]: 3.15 h
AUC(0-t) [2, 18]: 375 µg·h/mL
Cmax ([2]; male, 500 mg/kg, day 28, 500 mg/kg/dose BID oral gavage, M, read-out: Cmax): 43800 ng/mL
Tmax [2, 18]: 3 h
Circulating species in plasma ([2]; mice, oral gavage): predominant circulating molecule
clearance [3, 19]: 6.1 mL/min/kg
AUC(0-inf) [3, 19]: 1.38 µg·h/mL
half-life ([3]; dog, plasma, iv, single i.v. 0.5 mg/kg, two male beagle dogs, read-out: Mean terminal half-life (converted)): 4.1 h
Vd ([3]; dog, plasma, iv, single i.v. 0.5 mg/kg, two male beagle dogs, read-out: Volume of distribution at steady state (Vss) (mean)): 1.7 L/kg
Cmax [3, 20]: 560 ng/mL
AUC(0-inf) [3, 20]: 3.5 µg·h/mL
Circulating species in plasma ([3]; dogs, oral gavage): predominant circulating molecule
bioavailability ([3]; male, dog, plasma, oral 1.5 mg/kg versus i.v. 0.5 mg/kg, beagle dogs): 84.6%
Mean percent binding to plasma proteins (plasma proteins): approximately 91%
Effect on assembly of purified recombinant core protein [4]: effectively induced the formation of capsid-like particles
Increase in EC50 against HBV DNA replication in the presence of serum proteins (HBV [5]): about 4 fold
Antiviral effect, combination with pegIFN versus NVR 3-778 monotherapy (HBV [6]): greatest antiviral effect

From article PMC6325219, “Preclinical Characterization of NVR 3-778, a First-in-Class Capsid Assembly Modulator against Hepatitis B Virus” (Antimicrobial Agents and Chemotherapy, 2018)
